ChEMBL document CHEMBL1158532, “A novel kavalactone derivative protects against H2O2-induced PC12 cell death via Nrf2/ARE activation” (Bioorg Med Chem, 2010)
Calls of active or inactive are those of the source.

How the values were obtained:
PC-12 [1] = experiment: Induction of HO-1 protein expression in rat PC12 cells at 10 uM after 24 hrs by Western blot analysis; format: functional, cell-based
[2] = molecular target: T1, Nuclear factor erythroid 2-related factor 2 (Rattus norvegicus) (UniProt O54968); experiment: Activation of Nrf2 in rat PC12 cells at 10 uM after 24 hrs by antioxidant response element-driven luciferase reporter gene assay; format: functional, cell-based; conditions: PC-12
T1 sequence (whole entry): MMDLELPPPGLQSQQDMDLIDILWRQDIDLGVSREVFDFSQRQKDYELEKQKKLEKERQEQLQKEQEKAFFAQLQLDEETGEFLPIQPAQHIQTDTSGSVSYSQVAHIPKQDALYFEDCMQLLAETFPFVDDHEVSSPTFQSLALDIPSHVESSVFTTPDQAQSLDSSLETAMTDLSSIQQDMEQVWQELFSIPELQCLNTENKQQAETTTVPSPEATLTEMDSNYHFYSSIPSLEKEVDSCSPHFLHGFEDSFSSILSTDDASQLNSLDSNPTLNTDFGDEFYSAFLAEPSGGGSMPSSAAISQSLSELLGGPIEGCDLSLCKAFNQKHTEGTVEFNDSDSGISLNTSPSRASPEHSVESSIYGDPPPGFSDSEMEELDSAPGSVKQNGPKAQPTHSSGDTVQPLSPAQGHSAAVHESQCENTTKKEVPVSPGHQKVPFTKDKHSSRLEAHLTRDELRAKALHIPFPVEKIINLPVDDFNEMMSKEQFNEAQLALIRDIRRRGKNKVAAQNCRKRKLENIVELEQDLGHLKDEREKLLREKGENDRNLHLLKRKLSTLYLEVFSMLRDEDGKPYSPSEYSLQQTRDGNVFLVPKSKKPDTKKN

PC-12 [3] = experiment: Increase in NQO1 protein expression in rat PC12 cells at 10 uM after 3 hrs by Western blot analysis; format: functional, cell-based
PC-12 [4] = experiment: Cytotoxicity against rat PC12 cells at 100 uM after 24 hrs by WST8 assay; format: cell-based; conditions: pc-12, 24 h
[5] = molecular target: T1, Nuclear factor erythroid 2-related factor 2 (Rattus norvegicus); experiment: Activation of Nrf2 in rat PC12 cells at 10 uM after 24 hrs by antioxidant response element-driven luciferase reporter gene assay relative to yangonin; format: functional, cell-based; conditions: PC-12
[6] = molecular target: T2, Mitogen-activated protein kinase 1 and 3 (ERK2 and ERK1) (Rattus norvegicus) (UniProt P63086+P21708); experiment: Increase in Erk1/2 phosphorylation in rat PC12 cells at 10 uM after 5 mins by Western blot analysis; format: cell-based; conditions: PC-12
PC-12 [7] = experiment: Increase in HO-1 protein expression in rat PC12 cells at 10 uM treated 24 hrs before H202 challenge measured after 24 hrs by Western blot analysis; format: functional, cell-based
PC-12 [8] = experiment: Induction of HO-1 protein expression in rat PC12 cells at 10 uM after 24 hrs by Western blot analysis relative to control; format: functional
PC-12 [9] = experiment: Induction of Nrf2 release in rat PC12 cells assessed as increase in intracellular ROS level at 10 uM after 3 hrs by CM-H2-DCFDA staining-based fluorescence assay; format: functional, cell-based
PC-12 [10] = experiment: Induction of gamma-GCSc catalytic subunit protein expression in rat PC12 cells at 10 uM after 24 hrs by Western blot analysis relative to control; format: functional
PC-12 [11] = experiment: Induction of HO-1 protein expression in rat PC12 cells at 10 uM after 24 hrs by Western blot analysis relative to kawain; format: functional
PC-12 [12] = experiment: Neuroprotective activity against H202-induced rat PC12 cell death at 10 uM treated 24 hrs before H202 challenge measured after 24 hrs by WST8 assay; format: functional, cell-based
PC-12 [13] = experiment: Induction of gamma-GCSc catalytic subunit protein expression in rat PC12 cells at 10 uM after 12 hrs by Western blot analysis; format: functional, cell-based
PC-12 [14] = experiment: Induction of HO-1 protein expression in rat PC12 cells at 10 uM after 3 hrs by Western blot analysis in presence of 20 uM MEK1/2 inhibitor PD-98059; format: functional, cell-based
PC-12 [15] = experiment: Increase in p38 phosphorylation in rat PC12 cells at 10 uM after 5 mins by Western blot analysis; format: cell-based
[16] = molecular target: T2, Mitogen-activated protein kinase 1 and 3 (ERK2 and ERK1) (Rattus norvegicus); experiment: Increase in Erk1/2 phosphorylation in rat PC12 cells at 10 uM after 6 hrs by Western blot analysis; format: cell-based; conditions: PC-12
[17] = molecular target: RAC-alpha serine/threonine-protein kinase (Rattus norvegicus) (UniProt P47196); experiment: Increase in Akt phosphorylation in rat PC12 cells at 10 uM after 24 hrs by Western blot analysis; format: cell-based; conditions: PC-12
[18] = molecular target: T1, Nuclear factor erythroid 2-related factor 2 (Rattus norvegicus); experiment: Activation of Nrf2 in rat PC12 cells at 10 uM after 24 hrs by antioxidant response element-driven luciferase reporter gene assay relative to kawain; format: functional, cell-based; conditions: PC-12
[19] = molecular target: T1, Nuclear factor erythroid 2-related factor 2 (Rattus norvegicus); experiment: Activation of Nrf2 in rat PC12 cells assessed as induction of translocation into nucleus at 10 uM after 30 mins by Western blot analysis; format: functional, cell-based; conditions: PC-12
PC-12 [20] = experiment: Induction of NQO1 protein expression in rat PC12 cells at 10 uM after 24 hrs by Western blot analysis relative to control; format: functional
PC-12 [21] = experiment: Cytotoxicity against rat PC12 cells assessed as effect on cellular morphology at 50 to 100 uM after 24 hrs by WST8 assay; format: cell-based; conditions: pc-12, 24 h
PC-12 [22] = experiment: Induction of HO-1 protein expression in rat PC12 cells at 10 uM after 3 hrs by Western blot analysis in presence of 5 uM p38 inhibitor SB-203580; format: functional, cell-based
PC-12 [23] = experiment: Induction of Nrf2 release in rat PC12 cells assessed as increase in intracellular ROS level at 10 uM after 1 hr by CM-H2-DCFDA staining-based fluorescence assay; format: functional, cell-based
[24] = molecular target: T1, Nuclear factor erythroid 2-related factor 2 (Rattus norvegicus); experiment: Activation of Nrf2 in rat PC12 cells assessed as induction of translocation into nucleus at 10 uM after 24 hrs by Western blot analysis; format: functional, cell-based; conditions: PC-12
PC-12 [25] = experiment: Induction of HO-1 protein expression in rat PC12 cells at 10 uM after 3 hrs by Western blot analysis in presence of 2.5 […] N-acetyl-cysteine; format: functional, cell-based
PC-12 [26] = experiment: Induction of HO-1 protein expression in rat PC12 cells at 10 uM after 24 hrs by Western blot analysis relative to yangonin; format: functional
PC-12 [27] = experiment: Increase in HO-1 protein expression in rat PC12 cells at 10 uM after 3 hrs by Western blot analysis; format: functional, cell-based
[28] = molecular target: T1, Nuclear factor erythroid 2-related factor 2 (Rattus norvegicus); experiment: Activation of Nrf2 in rat PC12 cells at 10 uM after 24 hrs by antioxidant response element-driven luciferase reporter gene assay relative to methysticin; format: functional, cell-based; conditions: PC-12
[29] = molecular target: T1, Nuclear factor erythroid 2-related factor 2 (Rattus norvegicus); experiment: Activation of Nrf2 in rat PC12 cells after 24 hrs by antioxidant response element-driven luciferase reporter gene assay relative to yangonin; format: functional, cell-based; conditions: PC-12
PC-12 [30] = experiment: Induction of HO-1 protein expression in rat PC12 cells at 10 uM after 24 hrs by Western blot analysis relative to methysticin; format: functional

T2 sequence (P21708 whole entry, looked up): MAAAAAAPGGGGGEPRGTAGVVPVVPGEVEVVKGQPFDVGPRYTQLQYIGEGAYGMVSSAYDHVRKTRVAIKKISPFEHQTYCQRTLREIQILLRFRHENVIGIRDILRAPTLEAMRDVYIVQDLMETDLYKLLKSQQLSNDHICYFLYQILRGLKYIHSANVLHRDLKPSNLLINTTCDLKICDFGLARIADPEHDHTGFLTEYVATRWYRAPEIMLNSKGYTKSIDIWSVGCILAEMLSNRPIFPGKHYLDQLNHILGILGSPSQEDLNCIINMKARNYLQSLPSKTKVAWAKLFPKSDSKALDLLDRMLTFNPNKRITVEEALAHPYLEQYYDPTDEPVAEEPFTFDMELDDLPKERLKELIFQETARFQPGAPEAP
T2 sequence (P63086 whole entry, looked up): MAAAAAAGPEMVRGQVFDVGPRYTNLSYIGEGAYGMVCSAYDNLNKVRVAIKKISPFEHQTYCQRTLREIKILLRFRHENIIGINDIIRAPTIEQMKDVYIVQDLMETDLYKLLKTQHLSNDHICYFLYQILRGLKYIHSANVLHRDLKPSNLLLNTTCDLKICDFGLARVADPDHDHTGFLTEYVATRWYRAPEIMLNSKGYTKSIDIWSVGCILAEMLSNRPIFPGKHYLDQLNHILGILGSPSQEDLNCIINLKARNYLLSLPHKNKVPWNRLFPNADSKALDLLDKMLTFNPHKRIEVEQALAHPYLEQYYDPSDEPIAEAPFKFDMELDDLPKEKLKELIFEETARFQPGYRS
Chain of RAC-alpha serine/threonine-protein kinase (Rattus norvegicus) (P47196 whole entry): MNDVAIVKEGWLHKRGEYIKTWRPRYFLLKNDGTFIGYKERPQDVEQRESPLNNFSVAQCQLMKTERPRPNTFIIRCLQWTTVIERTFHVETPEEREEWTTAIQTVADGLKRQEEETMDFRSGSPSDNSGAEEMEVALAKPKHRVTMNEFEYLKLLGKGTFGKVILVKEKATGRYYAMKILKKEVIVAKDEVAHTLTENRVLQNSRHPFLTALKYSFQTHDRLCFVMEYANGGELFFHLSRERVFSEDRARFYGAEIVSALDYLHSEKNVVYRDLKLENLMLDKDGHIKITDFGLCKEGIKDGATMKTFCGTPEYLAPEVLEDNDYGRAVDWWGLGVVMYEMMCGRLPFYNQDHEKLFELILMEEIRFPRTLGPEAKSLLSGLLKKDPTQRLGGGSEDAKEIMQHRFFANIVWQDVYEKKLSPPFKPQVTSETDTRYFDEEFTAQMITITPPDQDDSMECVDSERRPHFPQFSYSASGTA

COc1ccc(/C=C/c2cc(OC)cc(=O)o2)cc1
active: Activity (PC-12 [1]) | Activity [2]

COC1=CC(=O)O[C@@H](/C=C/c2ccccc2)C1
active: Activity (PC-12 [1]) | Activity [2]

COCc1c(OC)cc(=O)oc1/C=C/c1c(Cl)cccc1Cl
3: fold change (FC) (PC-12 [11]) | fold change (FC) (PC-12 [26]) | fold change (FC) (PC-12 [30])
active: Activity (PC-12 [3]) | Activity [6] | Activity (PC-12 [7]) | Activity (PC-12 [12]) | Activity (PC-12 [13]) | Activity (PC-12 [15]) | Activity [19] | Activity (PC-12 [23]) | Activity [24] | Activity (PC-12 [27]) | Activity [29] Dose-dependent effect
1.3: fold change (FC) (PC-12 [20])
Toxic: Activity (PC-12 [21])
Non-toxic: Activity (PC-12 [4])
2: fold change (FC) [5] | fold change (FC) (PC-12 [8]) | fold change (FC) (PC-12 [10]) | fold change (FC) [18] | fold change (FC) [28]
inactive: Activity (PC-12 [9]) | Activity (PC-12 [14]) | Activity [16] | Activity [17] | Activity (PC-12 [22]) | Activity (PC-12 [25])

COC1=CC(=O)O[C@@H](/C=C/c2ccc3c(c2)OCO3)C1
active: Activity (PC-12 [1]) | Activity [2]
